Reference: US20140213446A1, “HERBICIDAL COMPOSITIONS AND METHODS USING COMBINATIONS OF 4-AMINO-3-CHLORO-6-(4-CHLORO-2-FLUORO-3-METHOXYPHENYL)PYRIDINE-2-CARBOXYLIC ACID OR A DERIVATIVE THEREOF AND AN ARYLOXYPHENOXY PROPIONATE ACCASE INHIBITOR HERBICIDE” (DOW AGROSCIENCES LLC, priority 2013, published 2014)

Key:
Experiment in all cases: Postemergent herbicidal activity, greenhouse
Format in all cases: in vivo
[1] = tested on: CYPES Cyperus esculentus L. (yellow nutsedge)
Procedure: (§1) Evaluation of Postemergent Herbicidal Activity. Seeds or nutlets of the desired test plant species were planted in Sun Gro Metro-Mix® 360 planting mixture, which typically has a pH of 6.0 to 6.8 and an organic matter content of about 30 percent, in plastic pots with a surface area of 64 square centimeters (cm^2). When required to ensure good germination and healthy plants, a fungicide treatment and/or other chemical or physical treatment was applied. The plants were grown for 7-21 days (d) in a greenhouse with an approximate 15 hour (h) photoperiod which was maintained at about 23-29° C. during the day and 22-28° C. during the night. Nutrients and water were added on a regular basis and supplemental lighting was provided with overhead metal halide 1000-Watt lamps as necessary. The plants were employed for testing when they reached the first or second true leaf stage.
(§2) A weighed amount, determined by the highest rate to be tested, of each test compound was placed in a 25 milliliter (mL) glass vial and was dissolved in 4 mL of a 97:3 volume per volume (v/v) mixture of acetone and dimethyl sulfoxide (DMSO) to obtain concentrated stock solutions. […] The concentrated stock solutions obtained were diluted with 20 mL of an aqueous mixture containing acetone, water, isopropyl alcohol, DMSO, Atplus 411F crop oil concentrate, and Triton® X-155 surfactant in a 48.5:39:10:1.5:1.0:0.02 v/v ratio to obtain spray solutions containing the highest application rates. Additional application rates were obtained by serial dilution of 12 mL of the high rate solution into a solution containing 2 mL of a 97:3 v/v mixture of acetone and DMSO and 10 mL of an aqueous mixture containing acetone, water, isopropyl alcohol, DMSO, Atplus 411F crop oil concentrate, and Triton X-155 surfactant in a 48.5:39:10:1.5:1.0:0.02 v/v ratio to obtain ½X, ¼X, ⅛X and 1/16X rates of the high rate. Compound requirements are based upon a 12 mL application volume at a rate of 187 liters per hectare (L/ha). Formulated compounds were applied to the plant material with an overhead Mandel track sprayer equipped with 8002E nozzles calibrated to deliver 187 L/ha over an application area of 0.503 square meters (m^2) at a spray height of 18 inches ([…]) above the average plant canopy height. Control plants were sprayed in the same manner with the solvent blank.
(§3) Treatments consisted of the methyl ester of 4-amino-3-chloro-6-(4-chloro-2-fluoro-3-methoxyphenyl)pyridine-2-carboxylic acid (Cmpd 1) as technical grade material and fluazifop-P-butyl (Fusilade® DX), haloxyfop-P-methyl (GALLANT® super), and quizalofop-P-ethyl (Assure® II) alone and in combination. The form of compound of formula (I) and fluazifop-P-butyl, haloxyfop-P-methyl, and quizalofop-P-ethyl were applied on an acid equivalent basis.
(§4) The treated plants and control plants were placed in a greenhouse as described above and watered by subirrigation to prevent wash-off of the test compounds. After 14 d, the condition of the test plants as compared with that of the untreated plants was determined visually and scored on a scale of 0 to 100 percent where 0 corresponds to no injury and 100 corresponds to complete kill.
(§5) Results of testing mixtures in accordance with this disclosure and of the components of the mixtures separately against various common weeds in greenhouse trials are reported in the following tables. The reported values are of percent (%) control or percent (%) injury, visually rated. Colby's equation was used to determine the herbicidal effects expected from the mixtures (Colby, S. R. Calculation of the synergistic and antagonistic response of herbicide combinations. Weeds 1967, 15, 20-22.).
(§6) More specifically, the following equation was used to calculate the expected activity of mixtures containing two active ingredients, A and B:
(§7) A=observed efficacy of active ingredient A at the same concentration as used in the mixture; B=observed efficacy of active ingredient B at the same concentration as used in the mixture. […]

[2] = tested on: IPOHE Ipomoea hederacea (L.) Jacq. (ivyleaf momingglory)
Procedure: as §1, §2, §3, §4, §5, §6, §7

[3] = tested on: STEME Stellaria media (L.) Vill. (common chickweed)
Procedure: as §1, §2, §3, §4, §5, §6, §7

[4] = tested on: BRSNW Brassica napus (winter oilseed rape)
Procedure: as §1, §2, §3, §4, §5, §6, §7

[5] = tested on: VIOTR Viola tricolor L. (wild violet)
Procedure: as §1, §2, §3, §4, §5, §6, §7

[6] = tested on: AMARE Amaranthus retroflexus L. (redroot pigweed)
Procedure: as §1, §2, §3, §4, §5, §6, §7

[7] = tested on: CHEAL Chenopodium album L. (common lambsquarters)
Procedure: as §1, §2, §3, §4, §5, §6, §7

Measured: Visual Growth Reduction (%) 14 DAA Obs

COC(=O)[C@@H](C)Oc1ccc(Oc2ncc(C(F)(F)F)cc2Cl)cc1 [Haloxyfop-P, haloxyfop-P-methyl]
0%: [1]; Haloxyfop-P 35 g ae/ha | [1]; Haloxyfop-P 70 g ae/ha | [1]; Haloxyfop-P 140 g ae/ha | [2]; Haloxyfop-P 35 g ae/ha | [2]; Haloxyfop-P 70 g ae/ha | [2]; Haloxyfop-P 140 g ae/ha | [3]; Haloxyfop-P 35 g ae/ha | [3]; Haloxyfop-P 70 g ae/ha | [3]; Haloxyfop-P 140 g ae/ha | [4]; Haloxyfop-P 35 g ae/ha | [4]; Haloxyfop-P 70 g ae/ha | [4]; Haloxyfop-P 140 g ae/ha | [5]; Haloxyfop-P 35 g ae/ha | [5]; Haloxyfop-P 70 g ae/ha | [5]; Haloxyfop-P 140 g ae/ha | [6]; Haloxyfop-P 35 g ae/ha | [6]; Haloxyfop-P 70 g ae/ha | [6]; Haloxyfop-P 140 g ae/ha | [7]; Haloxyfop-P 35 g ae/ha | [7]; Haloxyfop-P 70 g ae/ha | [7]; Haloxyfop-P 140 g ae/ha
